Reference: patent US20180050034A1, “ANTIFUNGAL TREATMENT OF CROHN'S DISEASE” (Gerbe Labs Inc., priority 2016, published 2018)

Key:
Assay type in all cases: cell-based
[1] = system: Aspergillus fumigatus+Candida albicans co-culture; assay: Checkerboard synergy assay, co-culture (FIG. 7, Table 4); conditions: combination of Aspergillus fumigatus and Candida albicans; read-out: MIC (agent alone, read from checkerboard FIG. 7)
Procedure: This study evaluated the synergistic activity of 2 antifungal agents (Itraconazole and Ketoconazole) with an antibiotic (Vancomycin or Tobramycin or Amikacin) against the spores of 2 fungi; Aspergillus fumigatus MYA3626 and Candida albicans ATCC 90028; individually as well as in co-cultivation (Aspergillus fumigatus+Candida albicans). Synergy testing was carried out as per checkerboard assay by Victor Lorian methodology. See, for example, Lorian, V. Antibiotics in Laboratory Medicine. Edition 5: (2005).
In vitro activity of the test articles were tested in combination by the Checkerboard assay. See, for example, Lorian, V. Antibiotics in Laboratory Medicine. Edition 5: (2005). The assay was carried out in duplicates. The starting concentrations for the test articles was determined as per the MIC data. Two-fold serial dilutions of 8×MIC for the antifungal agents; Itraconazole and Ketoconazole was performed separately. When Itraconazole and Ketoconazole were combined in a microtiter plate, the concentration of both agents was 2×MIC. […] The plates were incubated at 35° C. for 3-5 days. The assay plates were visually inspected to confirm the MIC endpoint and used to calculate the Fractional Inhibitory Concentration (FIC) Index to determine any synergistic interaction.
The FIC Index was calculated as follows: […]

[2] = system: Co-cultivation of A. fumigatus + C. albicans (MYA3626 + ATCC 90028); assay: Broth microdilution MIC assay against co-culture of fungal spores; conditions: Aspergillus fumigatus + Candida albicans co-culture; repeated MIC study (Table 4), agent alone; listed as Itraconazone
Procedure: Broth Microdilution Minimal Inhibitory Concentration (MIC) assays were performed to obtain the MIC values for Itraconazole and Ketoconazole with an antibiotic (Vancomycin or Tobramycin or Amikacin) against the two fungal strains.
The strains were maintained as a frozen glycerol stocks at −80° C. The fungal strains were prepared by thawing a glycerol stock, streaking and growing onto Sabouraud's Dextrose Agar (SDA) plates, overnight at 35±2° C. in aerobic conditions and used for the assay.
Antifungal agents: Itraconazole (Cat #16657, Lot #087K1322), Ketoconazole (Cat # K1003, Lot # SLBR1290V). Stocks were prepared in appropriate solvents following the CLSI guidelines. See, for example, Reference method for broth dilution antifungal susceptibility testing of filamentous fungi, approved standard, 2nd ed. CLSI document M38-A2, vol. 28. CLSI, Wayne, Pa. (2008).
The completely synthetic medium RPMI-1640 (with glutamine, without bicarbonate, and with phenol red as a pH indicator) was buffered with 0.165 mol/L MOPS (3-[N-morpholino] propanesulfonic acid) buffer was used as the growth medium for the fungal strains. Overnight cultures of the fungal strains were grown on Difco™ Sabouraud's Dextrose Agar (SDA) plates at 35° C. To induce conidium and sporangiospore formation, the culture plates were transferred to incubator and grown for 5-7 days 30° C. or until good sporulation was obtained. […]

S. aureus, a bacteria = assay: Culture sensitivity, Patient 7 isolate; conditions: Patient 7 bacterial culture
Excerpt: (§1) The patient underwent the standard workup for CRS, sleep disorder, and nasal obstruction, plus our diagnostic skin test and sinus CT scan.

Candida albicans = assay: Culture sensitivity, Patient 7 isolate; conditions: Patient 7 Candida albicans culture
Excerpt: as §1

MIC [1] [µg/mL]	MIC [2] [µg/mL]	Compound	Culture sensitivity (S. aureus, a bacteria)	Culture sensitivity (Candida albicans)
> 0.5	1	CCC(C)n1ncn(-c2ccc(N3CCN(c4ccc(OCC5COC(Cn6cncn6)(c6ccc(Cl)cc6Cl)O5)cc4)CC3)cc2)c1=O (centres unmarked) [Itraconazole]	–	–
–	–	NC[C@H]1O[C@H](O[C@H]2[C@H](O)[C@@H](O[C@H]3O[C@H](CO)[C@@H](O)[C@H](N)[C@H]3O)[C@H](N)C[C@@H]2N)[C@H](N)C[C@@H]1O [tobramycin]	sensitive	–
> 4	–	CC(=O)N1CCN(c2ccc(OCC3COC(Cn4ccnc4)(c4ccc(Cl)cc4Cl)O3)cc2)CC1 (centres unmarked) [Ketoconazole]	–	sensitive
